Data from US8802597B2, “Herbicidal pyrimidines” (E I du Pont de Nemours and Company, priority 2003, dated 2014).
Read-outs that look alike come from different tables or passages of the source.

Experiments:
Format in all cases: in vivo
[1] = tested on: Surinam grass (Brachiaria decumbens); test: Test C pre/postemergence; conditions: Urochloa decumbens; for pest or weed control at 31 g/ha: 31 g ai/ha; for pest or weed control at 62 g/ha: 62 g ai/ha
Procedure, shortened: (§1)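 Seeds sown and sprayed preemergence with test compound in non-phytotoxic solvent containing surfactant; postemergence sprays, same formulation, went onto plants 2 to 18 cm tall (1- to 4-leaf stage). Plants held in greenhouse 12 to 14 days, then visually rated against untreated controls on a 0–100 scale (0 no effect, 100 complete control).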

corn (Zea mays) = test: Test C pre/postemergence; conditions: Zea mays; for Corn plant response rating (crop injury, 0 = no effect, 100 = complete kill) at 31 g/ha: 31 g ai/ha; for Corn plant response rating (crop injury, 0 = no effect, 100 = complete kill) at 62 g/ha: 62 g ai/ha; for Corn plant response rating (crop injury, 0 = no effect, 100 = complete kill) at 125 g/ha: 125 g ai/ha
Procedure, shortened: as §1

[2] = tested on: goosegrass (Eleusine indica); test: Test C pre/postemergence; conditions: Eleusine indica; for pest or weed control at 31 g/ha: 31 g ai/ha; for pest or weed control at 62 g/ha: 62 g ai/ha; for pest or weed control at 125 g/ha: 125 g ai/ha
Procedure, shortened: as §1

[3] = tested on: Italian ryegrass (Lolium multiflorum); test: Test C postemergence
Procedure, shortened: as §1

[4] = tested on: blackgrass (Alopecurus myosuroides); test: Test C postemergence
Procedure, shortened: as §1

[5] = tested on: canarygrass (Phalaris minor); test: Test C postemergence
Procedure, shortened: as §1

[6] = tested on: downy brome (Bromus tectorum); test: Test C postemergence
Procedure, shortened: as §1

[7] = tested on: green foxtail (Setaria viridis); test: Test C postemergence
Procedure, shortened: as §1

[8] = tested on: wheat (Triticum aestivum); test: Test C postemergence
Procedure, shortened: as §1

wild oat (Avena fatua) = test: Test C postemergence
Procedure, shortened: as §1

[9] = tested on: windgrass (Apera spica-venti); test: Test C postemergence
Procedure, shortened: as §1

[10] = tested on: winter barley (Hordeum vulgare); test: Test C postemergence
Procedure, shortened: as §1

[11] = post-emergence, Postemergence, read-out: Plant response rating (scale of 0 to 100), Surinam Grass
[12] = pre-emergence, Preemergence, scale 0 to 100, 0 no effect, 100 complete control, read-out: Plant response rating, Surinam Grass
[13] = post-emergence, Postemergence, read-out: Plant response rating (scale of 0 to 100), Corn
[14] = pre-emergence, Preemergence, scale 0 to 100, 0 no effect, 100 complete control, read-out: Plant response rating, Corn
[15] = post-emergence, Postemergence, read-out: Plant response rating (scale of 0 to 100), Goosegrass
[16] = pre-emergence, Preemergence, scale 0 to 100, 0 no effect, 100 complete control, read-out: Plant response rating, Goosegrass

Nc1nc(C2CC2)nc(C(=O)OCc2ccccc2)c1Cl [Compound 78, phenylmethyl 6-amino-5-chloro-2-cyclopropyl-4-pyrimidinecarboxylate] was tested, and the pest or weed control at 125 g/ha ([1]; post-emergence, Postemergence, 125 g ai/ha, scale 0 to 100 (0 no effect, 100 complete control), read-out: Surinam Grass plant response rating) was 55%, the pest or weed control at 31 g/ha [1, 11] was 50% and the pest or weed control at 62 g/ha [1, 11] was 55%. It also gave a pest or weed control at 250 g/ha ([1]; post-emergence, Postemergence, 250 g ai/ha, scale 0 to 100, read-out: Plant response rating, Surinam Grass) of 90%, a pest or weed control at 16 g/ha ([1]; pre-emergence, Preemergence, 16 g ai/ha, scale 0 to 100, 0 no effect, 100 complete control, read-out: Plant response rating, Surinam Grass) of 0% and a pest or weed control at 31 g/ha [1, 12] of 0%. For the same compound, the pest or weed control at 62 g/ha [1, 12] was 0%, the Corn plant response rating (crop injury, 0 = no effect, 100 = complete kill) at 31 g/ha (corn (Zea mays); [13]) was 40% and the Corn plant response rating (crop injury, 0 = no effect, 100 = complete kill) at 62 g/ha (corn (Zea mays); [13]) was 40%. The Corn plant response rating (crop injury, 0 = no effect, 100 = complete kill) at 125 g/ha (corn (Zea mays); post-emergence, Postemergence, scale 0 to 100 (0 no effect, 100 complete control), read-out: Corn plant response rating) was 40%, the Corn plant response rating (crop injury, 0 = no effect, 100 = complete kill) at 250 g/ha (corn (Zea mays); post-emergence, Postemergence, 250 g ai/ha, scale 0 to 100) was 40% and the Corn plant response rating (crop injury, 0 = no effect, 100 = complete kill) at 16 g/ha (corn (Zea mays); pre-emergence, Preemergence, 16 g ai/ha, scale 0 to 100, 0 no effect, 100 complete control, read-out: Plant response rating, Corn) was 0%. It also gave a Corn plant response rating (crop injury, 0 = no effect, 100 = complete kill) at 31 g/ha (corn (Zea mays); [14]) of 0%, a Corn plant response rating (crop injury, 0 = no effect, 100 = complete kill) at 62 g/ha (corn (Zea mays); [14]) of 20% and a Corn plant response rating (crop injury, 0 = no effect, 100 = complete kill) at 125 g/ha (corn (Zea mays); pre-emergence, Preemergence, scale 0 to 100, read-out: Plant response rating, Corn) of 40%. It also gave a pest or weed control at 31 g/ha [2, 15] of 0%, a pest or weed control at 62 g/ha [2, 15] of 0% and a pest or weed control at 125 g/ha ([2]; post-emergence, Postemergence, scale 0 to 100 (0 no effect, 100 complete control), read-out: Goosegrass plant response rating) of 40%. The pest or weed control at 250 g/ha ([2]; post-emergence, Postemergence, 250 g ai/ha, scale 0 to 100, read-out: Plant response rating, Goosegrass) was 50%, the pest or weed control at 16 g/ha ([2]; pre-emergence, Preemergence, 16 g ai/ha, scale 0 to 100, 0 no effect, 100 complete control, read-out: Plant response rating, Goosegrass) was 0% and the pest or weed control at 31 g/ha [2, 16] was 0%. For the same compound, the pest or weed control at 62 g/ha [2, 16] was 0%, the pest or weed control at 125 g/ha ([2]; pre-emergence, Preemergence, scale 0 to 100, read-out: Plant response rating, Goosegrass) was 0% and the “Plant response rating (scale of 0 to 100), Ryegrass, Italian” value ([3]; 31 g ai/ha) was 0. For the same compound, the “Plant response rating (scale of 0 to 100), Ryegrass, Italian” value ([3]; 62 g ai/ha) was 10, the “Plant response rating, Ryegrass, Italian” value ([3]; 250 g ai/ha, scale 0 to 100) was 25 and the pest or weed control at 125 g/ha ([3]; Lolium multiflorum, post-emergence, 125 g ai/ha, scale 0 to 100 (0 no effect, 100 complete control), read-out: Ryegrass, Italian plant response rating) was 20%. The “Plant response rating (scale of 0 to 100), Blackgrass” value ([4]; 31 g ai/ha) was 0, the “Plant response rating (scale of 0 to 100), Blackgrass” value ([4]; 62 g ai/ha) was 5 and the “Plant response rating, Blackgrass” value ([4]; 250 g ai/ha, scale 0 to 100) was 50. The pest or weed control at 125 g/ha ([4]; Alopecurus myosuroides, post-emergence, 125 g ai/ha, scale 0 to 100 (0 no effect, 100 complete control), read-out: Blackgrass plant response rating) was 5%, the “Plant response rating (scale of 0 to 100), Canarygrass” value ([5]; 31 g ai/ha) was 0 and the “Plant response rating (scale of 0 to 100), Canarygrass” value ([5]; 62 g ai/ha) was 0. The “Plant response rating, Canarygrass” value ([5]; 250 g ai/ha, scale 0 to 100) was 0, the pest or weed control at 125 g/ha ([5]; Phalaris minor, post-emergence, 125 g ai/ha, scale 0 to 100 (0 no effect, 100 complete control), read-out: Canarygrass plant response rating) was 0% and the “Plant response rating (scale of 0 to 100), Bromegrass, Downy” value ([6]; 31 g ai/ha) was 5. The “Plant response rating (scale of 0 to 100), Bromegrass, Downy” value ([6]; 62 g ai/ha) was 10, the “Plant response rating, Bromegrass, Downy” value ([6]; 250 g ai/ha, scale 0 to 100) was 55 and the pest or weed control at 125 g/ha ([6]; Bromus tectorum, post-emergence, 125 g ai/ha, scale 0 to 100 (0 no effect, 100 complete control), read-out: Bromegrass, Downy plant response rating) was 15%. For the same compound, the “Plant response rating (scale of 0 to 100), Foxtail, Green” value ([7]; 31 g ai/ha) was 25, the “Plant response rating (scale of 0 to 100), Foxtail, Green” value ([7]; 62 g ai/ha) was 40 and the “Plant response rating, Foxtail, Green” value ([7]; 250 g ai/ha, scale 0 to 100) was 75. For the same compound, the pest or weed control at 125 g/ha ([7]; Setaria viridis, post-emergence, 125 g ai/ha, scale 0 to 100 (0 no effect, 100 complete control), read-out: Foxtail, Green plant response rating) was 70%, the “Plant response rating (scale of 0 to 100), Wheat” value ([8]; 31 g ai/ha) was 20 and the “Plant response rating (scale of 0 to 100), Wheat” value ([8]; 62 g ai/ha) was 20. For the same compound, the “Plant response rating, Wheat” value ([8]; 250 g ai/ha, scale 0 to 100) was 55, the plant injury at 125 g/ha ([8]; Triticum aestivum, post-emergence, 125 g ai/ha, scale 0 to 100 (0 no effect, 100 complete control), read-out: Wheat plant response rating) was 30% and the “Plant response rating (scale of 0 to 100), Oat, Wild” value (wild oat (Avena fatua); 31 g ai/ha) was 5. The “Plant response rating (scale of 0 to 100), Oat, Wild” value (wild oat (Avena fatua); 62 g ai/ha) was 10, the “Plant response rating, Oat, Wild” value (wild oat (Avena fatua); 250 g ai/ha, scale 0 to 100) was 60 and the pest or weed control at 125 g/ha (wild oat (Avena fatua); Avena fatua, post-emergence, 125 g ai/ha, scale 0 to 100 (0 no effect, 100 complete control), read-out: Oat, Wild plant response rating) was 60%. For the same compound, the “Plant response rating (scale of 0 to 100), Windgrass” value ([9]; 31 g ai/ha) was 5, the “Plant response rating (scale of 0 to 100), Windgrass” value ([9]; 62 g ai/ha) was 30 and the “Plant response rating, Windgrass” value ([9]; 250 g ai/ha, scale 0 to 100) was 40. The pest or weed control at 125 g/ha ([9]; Apera spica-venti, post-emergence, 125 g ai/ha, scale 0 to 100 (0 no effect, 100 complete control), read-out: Windgrass plant response rating) was 30%, the “Plant response rating (scale of 0 to 100), Barley” value ([10]; 31 g ai/ha) was 5 and the “Plant response rating, Barley” value ([10]; 250 g ai/ha, scale 0 to 100) was 90. The plant injury at 62 g/ha ([10]; Hordeum vulgare, post-emergence, 62 g ai/ha, scale 0 to 100 (0 no effect, 100 complete control), read-out: Barley plant response rating) was 5% and the plant injury at 125 g/ha ([10]; Hordeum vulgare, post-emergence, 125 g ai/ha, scale 0 to 100 (0 no effect, 100 complete control), read-out: Barley plant response rating) was 30%.
